The results in this text go back to PubChem BioAssay (NCI).

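Five concentrations, 48 hours, 96-well plates. GI50 is the concentration that inhibits growth by half. TGI denotes the concentration required for complete inhibition of growth.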

Some test systems named below: 786-0 renal; DU-145 prostate; HCC-2998 colon; NCI-H522 lung; OVCAR-4 ovarian; RXF 393 renal; SNB-19 CNS; UACC-62 melanoma; U251 CNS.
What all share (assay): inhibition of tumour cell growth, NCI panel, 48 h

Consider `CSC(SC)=C(C(=O)O)P(=O)(O)O`, for which the TGI with 786-0 renal, in the assay with DU-145 prostate, in the assay with HCC-2998 colon, in the assay on NCI-H522 lung, in the assay on OVCAR-4 ovarian and in the assay on RXF 393 renal was greater than 100 µM each time. Moreover, the TGI in the assay with SNB-19 CNS and in the assay on UACC-62 melanoma was greater than 100 µM throughout.
For the molecule `O=C1C=CC(=O)N1n1c(-c2ccccc2)n[nH]c1=O`, the TGI with 786-0 renal, in the assay on DU-145 prostate, in the assay with HCC-2998 colon, in the assay with NCI-H522 lung, in the assay with OVCAR-4 ovarian and in the assay on RXF 393 renal was greater than 100 µM in each case. Besides, the TGI in the assay with U251 CNS and in the assay with UACC-62 melanoma was greater than 100 µM each time.
For the molecule `COc1cc(-c2n/c(=C\c3c(O)[nH]c4ccc(Cl)cc34)cc3c2=Nc2ccccc2-3)ccc1F`, the GI50 is 2.18 µM in the assay with DU-145 prostate; 2.94 µM in the assay with HCC-2998 colon; 1.74 µM with OVCAR-4 ovarian; 1.71 µM with RXF 393 renal; 1.87 µM in the assay with SNB-19 CNS; 1.58 µM in the assay with U251 CNS. The GI50 with UACC-62 melanoma is 1.65 µM. Moreover, the TGI in the assay with DU-145 prostate worked out at 4.8 µM; in the assay with HCC-2998 colon it was 8.81 µM; in the assay with OVCAR-4 ovarian it was 3.48 µM; in the assay with RXF 393 renal, 3.29 µM; with SNB-19 CNS, 4.11 µM; in the assay with U251 CNS, 3.06 µM. Further, in the assay on UACC-62 melanoma, the TGI worked out at 3.2 µM.
With `N#C/C(=C/n1c(=S)[nH]c2ccc([N+](=O)[O-])cc21)C(N)=O`, the TGI with 786-0 renal, with DU-145 prostate, in the assay on OVCAR-4 ovarian, with RXF 393 renal, in the assay with SNB-19 CNS and in the assay with U251 CNS was greater than 100 µM in each case. Moreover, the TGI in the assay with UACC-62 melanoma is greater than 100 µM.
For the molecule `C/C(Cl)=N\OC(=O)Nc1ccc(C)cc1`, the TGI in the assay on 786-0 renal is 32.7 µM; in the assay on HCC-2998 colon, 31.4 µM; in the assay with OVCAR-4 ovarian, 32.9 µM; with SNB-19 CNS it was greater than 100 µM; with U251 CNS, 29.9 µM.
For `Cc1ccc2c(c1)-c1c(C#N)c(N)nc(-c3ccc(Cl)cc3)c1CCS2(=O)=O`, the TGI in the assay with 786-0 renal is greater than 100 µM; with DU-145 prostate, greater than 100 µM; in the assay on HCC-2998 colon, greater than 100 µM; in the assay with NCI-H522 lung it was greater than 23.1 µM; in the assay on OVCAR-4 ovarian it was greater than 100 µM; with SNB-19 CNS, greater than 100 µM. For the same molecule, the TGI in the assay with U251 CNS and in the assay on UACC-62 melanoma was greater than 100 µM each time.
In the case of `C=C(C)OCOCCOC`, the TGI in the assay with 786-0 renal, in the assay on DU-145 prostate, in the assay with HCC-2998 colon, in the assay with NCI-H522 lung, in the assay with SNB-19 CNS and in the assay with U251 CNS was greater than 100 µM each time. Besides, the TGI in the assay on UACC-62 melanoma was greater than 100 µM.
For the molecule `COc1ccc(/C=c2\s/c(=C3/SC(=S)N(c4ccccc4)C3=O)n(-c3ccccc3)c2=O)cc1`, the TGI in the assay with 786-0 renal, in the assay with DU-145 prostate, with HCC-2998 colon, with NCI-H522 lung, in the assay on OVCAR-4 ovarian and in the assay with SNB-19 CNS was greater than 100 µM in each case. Further, the TGI with U251 CNS and in the assay with UACC-62 melanoma was greater than 100 µM each time.
Turning to `C1=C2C3=[N+](CCCCC3)CC2Cc2ccsc21` (configuration not stated), the TGI in the assay with 786-0 renal, with DU-145 prostate, with NCI-H522 lung, in the assay on OVCAR-4 ovarian, with RXF 393 renal and in the assay on SNB-19 CNS was greater than 100 µM throughout. The TGI with U251 CNS and in the assay on UACC-62 melanoma was greater than 100 µM in each case.
Regarding `CC1(C)OCC2OC3([C@@H]4OC(C)(C)O[C@H]4CO)OC(C)(C)OC3C2O1` (some centres not stated), the TGI in the assay with 786-0 renal, in the assay with DU-145 prostate, in the assay with HCC-2998 colon, with OVCAR-4 ovarian, in the assay with RXF 393 renal and with SNB-19 CNS was greater than 100 µM each time. The TGI in the assay with U251 CNS and with UACC-62 melanoma was greater than 100 µM throughout.
Regarding `COc1cc2cc(C(=O)N3C[C@H](CCl)c4c3cc(N)c3ccccc43)[nH]c2c(OC)c1OC`, the GI50 was less than 0.005 µM in the assay on DU-145 prostate; less than 0.005 µM with HCC-2998 colon; less than 0.005 µM in the assay on NCI-H522 lung; 0.0252 µM in the assay on SNB-19 CNS; 0.005 µM in the assay on U251 CNS. Also, the TGI in the assay with DU-145 prostate is less than 0.005 µM; with HCC-2998 colon, less than 0.005 µM; in the assay on NCI-H522 lung, less than 0.005 µM; in the assay on SNB-19 CNS it was 1.24 µM; in the assay on U251 CNS, greater than 50 µM.
For `CS(=O)(=O)Nc1ccc2c(c1)N(S(C)(=O)=O)CC2CCl` (configuration not stated), the TGI with 786-0 renal, in the assay on DU-145 prostate, in the assay with HCC-2998 colon, in the assay on NCI-H522 lung, in the assay on OVCAR-4 ovarian and with RXF 393 renal was greater than 100 µM throughout. For the same molecule, the TGI in the assay on U251 CNS and in the assay with UACC-62 melanoma was greater than 100 µM each time.
In the case of `COc1ccc(Nc2nc(N)c(C(=O)c3c[nH]c4ccccc34)s2)cc1`, the TGI with 786-0 renal is 13.6 µM; in the assay on DU-145 prostate, 10.2 µM; in the assay on OVCAR-4 ovarian, greater than 100 µM; with RXF 393 renal, 11.4 µM; with SNB-19 CNS, greater than 100 µM; in the assay on U251 CNS it was greater than 100 µM. In addition, the TGI in the assay on UACC-62 melanoma was greater than 100 µM.
With `N#C/C(C(=O)Nc1ccc(Cl)cc1)=C(/N)N1CCCC1`, the TGI in the assay on 786-0 renal, in the assay with DU-145 prostate, in the assay on HCC-2998 colon, in the assay on SNB-19 CNS, in the assay with U251 CNS and with UACC-62 melanoma was greater than 100 µM each time.
Turning to `O=C1N=C2SC(=S)NC(=S)N2NC12c1ccccc1-c1ccccc12`, the TGI in the assay on 786-0 renal, in the assay on DU-145 prostate, with HCC-2998 colon, in the assay with OVCAR-4 ovarian, in the assay on U251 CNS and in the assay on UACC-62 melanoma was greater than 10 µM in each case.
`CCc1c(CNc2ccc(C(=O)NC(CC(=O)O)C(=O)O)cc2)ccc2nc(N)nc(N)c12` (configuration not stated): the TGI in the assay on 786-0 renal, in the assay on DU-145 prostate, in the assay with NCI-H522 lung, with OVCAR-4 ovarian, in the assay with RXF 393 renal and with SNB-19 CNS was greater than 1000 µM throughout. Also, the TGI in the assay with U251 CNS and with UACC-62 melanoma was greater than 1000 µM in each case. Also, the GI50 in the assay on DU-145 prostate was 0.148 µM; with NCI-H522 lung it was 1.09 µM; in the assay on OVCAR-4 ovarian it was 869 µM; with RXF 393 renal, greater than 1000 µM; in the assay on SNB-19 CNS, 0.188 µM; in the assay on U251 CNS, 372 µM.
